Assay results as given in patent US12257214B2, “Compositions and methods comprising deoxy-pentitols” (The Charlotte Mecklenburg Hospital Authority, priority 2021, dated 2025).

Experiments:
A-549 = assay: ATPlite cell IC50 screening, A-549; type: cell-based; conditions: Homo sapiens, A549; A-549, Lung adenocarcinoma; ATPlite luminescence
Protocol: (§1) In brief, the cells were cultures in relevant medium and treated with a range of 9 doses of 2-deoxyribitol, from 10 mM, 5 mM, 2.5 mM, 1.25 mM, 0.62 mM, 0.31 mM, 0.08 mM, and 0.04 mM. Cells were diluted in the corresponding ATCC recommended medium and dispensed in a 384-well plate, depending on the cell line used, at a density of 100-6400 cells per well in 45 μl medium. For each used cell line the optimal cell density was used. The margins of the plate were filled with phosphate-buffered saline. Plated cells were incubated in a humidified atmosphere of 5% CO2 at 37° C. After 24 hours, 5 μl of compound dilution was added and plates were further incubated. At the end of experiment (t=end), 24 μl of ATPlite 1Step™ (PerkinElmer) solution was added to each well, and subsequently shaken for 2 minutes. After 10 minutes of incubation in the dark, the luminescence was recorded on an Envision multimode reader (PerkinElmer). IC50 was determined in comparison with the control samples. The cell lines tested and their corresponding disease model is indicated the left-most and middle columns, respectively. IC50 values are given in μM values in the right-most column. This screening was performed of a list of cancer cells to establish IC50 values for each of the cancer cell lines. This screening provides evidence for the potential of 2DR to treat many cancer types.

Jurkat E6.1 = assay: ATPlite cell IC50 screening, Jurkat E6.1; type: cell-based; conditions: Homo sapiens; Jurkat E6.1, Childhood T acute lymphoblastic leukemia; ATPlite luminescence
Protocol: as §1

Work on `OCC[C@H](O)[C@H](O)CO` [2-deoxyribitol] yielded an IC50 (A-549) of 9.97 mM and an IC50 (Jurkat E6.1) of 4.65 mM.
